This is an account of results in patent US4365076A, “Process for the preparation of cycloalkylidenemethylphenylacetic acid derivatives” (Sankyo Company Limited, priority 1977, dated 1982).

The subject of assay [1] is carrageenin-induced paw edema. The assay can be described thus: Carrageenin Edema Test in Rats. Format: in vivo, rat (male Wistar). The note with it: for Inhibition %, Anti-inflammatory activity: Table I; for ED50: Rattus norvegicus, po, P.O., 30 minutes before carrageenin, edema 3 hours after, rats, Table II, read-out: Anti-inflammatory activity, Carrageenin Edema Test ID50. The procedure: (1) Carrageenin Edema Test in Rats
Inflammation was introduced by injection of 0.05 ml. of 1% carrageenin suspension into the plantar tissue of rat hind paw subcutaneously, by the method of Winter et al. in Proc. Soc. Exp. Biol. Med. 111, 544 (1962). Male Wistar rats weighing 120 to 150 g. which had fasted overnight received the test drug in aqueous tragacanth suspension orally 30 minutes before the carrageenin injection.
Paw edema was measured volumetrically, just before and 3 hours after the carrageenin injection, and R (response) was obtained by the following equation: R=(V-Vo)/Vo, where Vo and V represented the paw volumes 0 and 3 hours after carrageenin injection, respectively.
(§1) In order to get the regression line of H (% inhibition of the response) on D (dose of test drug), H in each animal was calculated from the ratio of the response to the mean response in non-medicated group. Then, the regression line and ID50 were obtained by the method of least squares. The confidence limits of ID50 was calculated using Fieller's Equation.

Assay [2] relates to inflammatory pain. In words: Thermal Pain Test in Rats (analgesic activity on inflammatory pain). It is filed as in vivo, rat (male Wistar). The note with it: for Inhibition %, Analgesic activity: Table I; for ED50: Rattus norvegicus, po, P.O., mean at 1 and 2 hours after drug, rats, Table II, read-out: Analgesic activity, Thermal Pain Test ID50. The procedure: II. ANALGESIC ACTIVITY ON INFLAMMATORY PAIN
Thermal Pain Test in Rats
The test was conducted according to the method reported by Y. Iizuka and K. Tanaka in Folia Pharmacol. Japan, 70, 697 (1974).
Under ether anesthesia, male Wistar rat of 5-7 weeks old received a standard heat injury at the hind paw by dipping it in hot water (57° C., 6 seconds). More than 1 hour later, the pain reaction could be evoked easily by another stimulatory heat (40° C., 5 seconds). Namely immediately after this treatment, the animal used to lift up the injured paw, presumably to avoid further pain which might be caused by touching it with the wire-netting of the cage.
Thus, the sum of duration time of the paw-lifting behavior was counted over a 30 seconds period and this was used as "pain reaction time." Drug was given orally 2 hours after the first application of heat and the mean value of "pain reaction time" at 1 and 2 hours after drug administration was used as the response.
as §1

In assay [3] the test system is adjuvant-induced arthritis. In words: Adjuvant-induced Arthritis Test in Rats (Therapeutic Effect on Established Arthritis). Format: in vivo, rat (female Lewis). As to conditions: Rattus norvegicus, po, 168 h, P.O., twice a day, 7 days (day 18 to 25), Table II, read-out: Anti-inflammatory activity, Adjuvant Arthritis Test ID50. How it is done:
(2) Adjuvant-induced Arthritis Test in Rats
(Therapeutic Effect on Established Arthritis)
Female Lewis rats of 7-8 weeks old were injected intradermally in the hind paw with 0.05 mg. of heat-killed Mycobacterium butyricum in 0.05 ml. of liquid paraffin. Eighteen days after adjuvant injection, the well-established arthritic animals were selected and subjected to 7 days therapy with drug (twice a day orally). As the response, the volume of injected foot was measured by water displacement method at the beginning (day 18) and the end (day 25) of the therapy period.
as §1
In adjuvant arthritis, however, the ratio (RR) of responses after/before medication period was calculated first, where the response meant the swelled foot volume of the injected foot. Then, H in each animal was calculated from the ratio of RR to RRc, where RRc represented the mean RR is non-medicated group.

Assay [4] deals with LPS-induced fever. In words: LPS-induced Fever Test in Guinea Pigs (antipyretic activity). It is filed as in vivo, guinea pig (female Hartley). As to conditions: Cavia porcellus, po, P.O., 1.5 hours after LPS, mean at 1 and 2 hours after drug, Table II, read-out: Antipyretic activity, LPS-induced Fever Test ID50. The procedure: III. ANTIPYRETIC ACTIVITY
LPS-induced Fever Test in Guinea Pigs
Antipyretic activity was determined by a modified method of Kobayashi and Takagi in Jap. J. Pharmacol. 18, 80 (1968). Female Hartley guinea pigs weighing about 300 g. had fasted overnight and the fever was induced by injecting 1.0 μg/ml/kg LPS (product of Difco Laboratories, U.S.A., Lipo polysaccharide from Escherichia coli).
One hour after the injection, rectal temperature was measured and only the animals with fever between 0.8° C. and 1.2° C. were used for experiment.
Drugs were administered orally 1.5 hours after LPS injection, and the mean value of rectal temperature of each animal 1 and 2 hours after drug administration was used as the response.
as §1

Take `CCOC(=O)C(C)c1ccc(C=C2CCCC2=O)cc1` (stereo not shown) [Ethyl 2-[4-(2-oxo-1-cyclopentylidenemethyl)phenyl]propionate]: the “Inhibition %, Anti-inflammatory activity” value in assay [1] (6.3 mg/kg (P.O.)) is 85.0%. Also, the “Inhibition %, Analgesic activity” value in assay [2] (6.3 mg/kg (P.O.)) is given as 50.5%.
On to `CC(C)Cc1ccc(C(C)C(=O)O)cc1` (stereo not shown) [Ibuprofen, reference compound], for which the ED50 amounted to 104 mg/kg in assay [3], 10.8 mg/kg in assay [1], 1.26 mg/kg in assay [4] and 17.8 mg/kg in assay [2].
For the compound `CCCCC1C(=O)N(c2ccccc2)N(c2ccccc2)C1=O` [Phenylbutazone, reference compound], in assay [1] ((Control) 25 mg/kg (P.O.)), the “Inhibition %, Anti-inflammatory activity” value is recorded as 30.6%. Further, the “Inhibition %, Analgesic activity” value in assay [2] ((Control) 19 mg/kg (P.O.)) came to 37%.
As for `CC(C(=O)O)c1ccc(C=C2CCCC2=O)cc1` (stereo not shown) [2-[4-(2-Oxo-1-cyclopentylidenemethyl)phenyl]propionic acid], the ED50 in assay [3] worked out at 1.2 mg/kg; in assay [1], 1.4 mg/kg; in assay [4], 0.83 mg/kg; in assay [2] it was 1.3 mg/kg. The “Inhibition %, Anti-inflammatory activity” value in assay [1] (6.3 mg/kg (P.O.)) stood at 76.4%. Besides, the “Inhibition %, Analgesic activity” value in assay [2] (6.3 mg/kg (P.O.)) was 77.4%.
For `CC(C(=O)O)c1ccc(C=C2CCCCC2=O)cc1` (stereo not shown) [2-[4-(2-Oxo-1-cyclohexylidenemethyl)phenyl]propionic acid], the ED50 in assay [3] was found to be 0.2 mg/kg; in assay [1], 1.2 mg/kg; in assay [4], 1.46 mg/kg; in assay [2] it was 1.8 mg/kg. In assay [1] (6.3 mg/kg (P.O.)), the “Inhibition %, Anti-inflammatory activity” value was 75.0%. Also, the “Inhibition %, Analgesic activity” value in assay [2] (6.3 mg/kg (P.O.)) is recorded as 86.8%.
`CCOC(=O)C(C)c1ccc(C=C2CCCCC2=O)cc1` (stereo not shown) [Ethyl 2-[4-(2-oxo-1-cyclohexylidenemethyl)phenyl]propionate]: in assay [1] (6.3 mg/kg (P.O.)), the “Inhibition %, Anti-inflammatory activity” value is recorded as 72.7%. The “Inhibition %, Analgesic activity” value in assay [2] (6.3 mg/kg (P.O.)) was determined as 59.2%.
